Measurements published in paper PMC3940698 (PLoS ONE, 2014).
Read-outs that look alike come from different tables or passages of the source. One block for each molecule: values may come before it.

Key:
[1] = tested on: rat liver microsomes (mixed CYPs); assay: Rat liver microsomes, diclofenac hydroxylation, inhibition; assay type: biochemical; settings: for Global Ki, non-linear regression: KM taken as 10 µM
Description: In some reactions, another method was used.

CYP2E1 [2] = target: T1, CYP2E1 (Homo sapiens, UniProt P05181); assay: CYP2E1 baculosomes, pNP reaction; settings: for Ki, Cheng-Prusoff method (in words): pNP reactions, CYP2E1 baculosomes, inhibitor 10 nM
T1 sequence (P05181 whole entry): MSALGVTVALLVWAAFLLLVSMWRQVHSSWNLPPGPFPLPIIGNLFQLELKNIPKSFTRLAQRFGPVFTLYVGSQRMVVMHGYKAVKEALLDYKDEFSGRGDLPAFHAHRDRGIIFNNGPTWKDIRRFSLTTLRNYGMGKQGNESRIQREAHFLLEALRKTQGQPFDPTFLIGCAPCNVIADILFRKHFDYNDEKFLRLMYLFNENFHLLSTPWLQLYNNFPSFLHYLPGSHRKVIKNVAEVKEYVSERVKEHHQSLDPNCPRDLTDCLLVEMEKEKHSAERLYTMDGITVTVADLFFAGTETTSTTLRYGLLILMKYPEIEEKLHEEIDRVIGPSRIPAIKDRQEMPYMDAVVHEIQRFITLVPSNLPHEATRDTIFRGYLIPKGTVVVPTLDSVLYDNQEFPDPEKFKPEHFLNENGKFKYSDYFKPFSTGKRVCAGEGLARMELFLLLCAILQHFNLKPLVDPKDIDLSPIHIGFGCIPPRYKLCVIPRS

[3] = tested on: various CYPs tested (CYP2C9, CYP3A4, CYP2D6, CYP2E1); assay: Ki of BzBr for the various CYPs tested (baculosomes, Diclof or pNP); settings: equivalent substrate-BzBr concentrations
CYP2C9 [4] = target: T2, CYP2C9 (Homo sapiens, UniProt P11712); assay: CYP2C9 baculosomes, diclofenac hydroxylation, inhibition; assay type: biochemical; settings: for Ki / Localized Ki, Chance equation / Localized Ki, Cheng-Prusoff equation / Global Ki, linear regression / Global Ki, non-linear regression: CYP2C9+Diclof;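 for all read-outs here: reactions run at 27 °C in 100 mM potassium phosphate, pH 7.4, in a 250 µl volume, with hydroxylated product quantified from HPLC peak areas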
T2 construct: purchased Life Technologies (and Panvera), Invitrogen
T2 sequence (P11712 whole entry): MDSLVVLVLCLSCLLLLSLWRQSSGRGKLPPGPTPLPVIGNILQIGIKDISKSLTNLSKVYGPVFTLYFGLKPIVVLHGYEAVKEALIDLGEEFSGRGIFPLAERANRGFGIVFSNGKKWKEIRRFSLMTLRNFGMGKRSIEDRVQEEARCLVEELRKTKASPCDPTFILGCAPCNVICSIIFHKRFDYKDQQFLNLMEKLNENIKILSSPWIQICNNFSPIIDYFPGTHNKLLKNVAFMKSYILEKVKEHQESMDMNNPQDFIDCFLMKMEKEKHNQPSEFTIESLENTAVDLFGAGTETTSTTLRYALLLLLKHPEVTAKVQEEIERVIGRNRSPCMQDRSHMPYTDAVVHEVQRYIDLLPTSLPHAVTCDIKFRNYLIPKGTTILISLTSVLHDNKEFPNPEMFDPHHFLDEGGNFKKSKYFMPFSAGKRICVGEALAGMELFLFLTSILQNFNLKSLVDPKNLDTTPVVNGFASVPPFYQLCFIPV

CYP2E1 [5] = target: T1, CYP2E1
CYP2C9 [6] = target: T2, CYP2C9; settings: ref [4]-[6]; cited from earlier work
CYP3A4 = target: T3, CYP3A4 (Homo sapiens, UniProt P08684); assay: CYP3A4 baculosomes, diclofenac or pNP product formation; assay type: biochemical; settings: CYP3A4 baculosomes 20 nM, inhibitor equivalent amount, 30 minutes
T3 construct: host or cells: baculosomes
T3 sequence (P08684 2-503 limits assumed): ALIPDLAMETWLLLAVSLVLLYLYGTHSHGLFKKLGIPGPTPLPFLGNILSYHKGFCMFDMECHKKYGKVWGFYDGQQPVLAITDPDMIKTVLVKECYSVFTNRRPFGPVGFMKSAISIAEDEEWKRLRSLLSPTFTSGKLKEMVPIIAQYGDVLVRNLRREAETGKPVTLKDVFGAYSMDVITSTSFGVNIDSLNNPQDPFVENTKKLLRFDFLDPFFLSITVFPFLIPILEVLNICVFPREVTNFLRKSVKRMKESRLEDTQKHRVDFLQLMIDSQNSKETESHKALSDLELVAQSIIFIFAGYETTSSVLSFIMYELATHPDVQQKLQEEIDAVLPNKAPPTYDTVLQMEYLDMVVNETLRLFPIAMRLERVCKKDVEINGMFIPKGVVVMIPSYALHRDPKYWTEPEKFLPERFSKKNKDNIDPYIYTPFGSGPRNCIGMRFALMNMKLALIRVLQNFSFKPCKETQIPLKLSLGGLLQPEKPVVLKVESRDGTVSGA

CYP2D6 = target: T4, CYP2D6 (Homo sapiens, UniProt P10635); assay: CYP2D6 baculosomes, diclofenac or pNP product formation; assay type: biochemical; settings: CYP2D6 baculosomes 20 nM, inhibitor equivalent amount, 30 minutes
T4 construct: host or cells: baculosomes
T4 sequence (P10635 whole entry): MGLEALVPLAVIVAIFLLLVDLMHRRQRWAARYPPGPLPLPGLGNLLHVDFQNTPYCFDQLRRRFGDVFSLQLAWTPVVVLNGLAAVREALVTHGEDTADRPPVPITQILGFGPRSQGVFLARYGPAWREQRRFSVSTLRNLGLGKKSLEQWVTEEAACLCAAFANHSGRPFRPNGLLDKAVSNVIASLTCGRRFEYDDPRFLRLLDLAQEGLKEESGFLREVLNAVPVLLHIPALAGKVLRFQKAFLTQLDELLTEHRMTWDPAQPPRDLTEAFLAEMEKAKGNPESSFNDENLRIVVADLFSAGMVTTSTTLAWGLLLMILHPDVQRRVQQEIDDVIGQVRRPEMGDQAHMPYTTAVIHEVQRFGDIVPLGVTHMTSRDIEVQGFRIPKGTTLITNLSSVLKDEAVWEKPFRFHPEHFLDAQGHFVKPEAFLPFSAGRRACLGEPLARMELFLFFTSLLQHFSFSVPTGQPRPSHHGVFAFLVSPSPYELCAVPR

[7] = Microsomes+Diclof, 0.5 µM CYP, 200 µM diclofenac, 400 µM NADPH
[8] = [I] 0.01 µM, read-out: Localized Ki, Chance equation
[9] = [I] 0.01 µM, read-out: Localized Ki, Cheng-Prusoff equation
[10] = [I] 1 µM, read-out: Localized Ki, Chance equation
[11] = [I] 1 µM, read-out: Localized Ki, Cheng-Prusoff equation
[12] = [I] 100 µM, read-out: Localized Ki, Cheng-Prusoff equation
[13] = 10 nM CYP, 100 µM diclofenac, 200 µM NADPH
[14] = KM taken as 10 µM, 10 nM CYP, 100 µM diclofenac, 200 µM NADPH

- Global Ki, linear regression [1, 7]: -
- Global Ki, non-linear regression [1, 7]: -
- Ki, Cheng-Prusoff method (in words) (CYP2E1 [2]): low nM ranges
- Ki derived from calculations (in words) [3]: Submicromolar
Molecule: CCc1oc2ccccc2c1C(=O)c1cc(Br)c(O)c(Br)c1 [BzBr, benzbromarone]

- Ki (CYP2C9 [4]; 10 nM CYP, 100 µM diclofenac, 200 µM NADPH, read-out: Global Ki, linear regression): 30900 nM
- Ki (CYP2C9 [4]; KM taken as 10 µM, 10 nM CYP, 100 µM diclofenac, 200 µM NADPH, read-out: Global Ki, non-linear regression): 2.8 nM
- Ki (CYP2C9 [4]; [8]): 243 nM
- Ki (CYP2C9 [4]; [9]): 2.6 nM
- Ki (CYP2C9 [4]; [10]): 995 nM
- Ki (CYP2C9 [4]; [11]): 9.1 nM
- Ki (CYP2C9 [4]; [I] 100 µM, read-out: Localized Ki, Chance equation): 190000 nM
- Ki (CYP2C9 [4]; [12]): 650 nM
- Global Ki, linear regression [1, 7]: -
- Global Ki, non-linear regression [1, 7]: -
- Ki, Cheng-Prusoff method (in words) (CYP2E1 [5]): low nM ranges
Molecule: CCc1oc2ccccc2c1C(=O)c1cc(I)c(O)c(I)c1 [BzIr, benziodarone]
- Ki (CYP2C9 [6]): ≤ 1 nM

- Ki (CYP2C9 [4]; [8]): 6.4 nM
- Ki (CYP2C9 [4]; [10]): 97700 nM
- Ki (CYP2C9 [4]; [11]): 89.9 nM
- Ki (CYP2C9 [4]; [12]): 8680 nM
- Ki via non-linear regression (in words) (CYP2C9 [4]; CYP2C9 baculosomes): sub-nanomolar
- Ki via linear regression analysis (in words) (CYP2C9 [4]; CYP2C9 baculosomes, same experimental data): supra-millimolar
- Ki, Cheng-Prusoff method (in words) (CYP2E1 [2]): low nM ranges
Molecule: O=C(O)c1cc(Br)c(O)c(Br)c1 [DBHB]

- Localized Ki, Chance equation (CYP2C9 [4]; [I] 0.01 µM): -
- Localized Ki, Cheng-Prusoff equation (CYP2C9 [4]; [I] 0.01 µM): -
- Ki (CYP2C9 [4]; [11]): 306 nM
- Ki (CYP2C9 [4]; [12]): 95400 nM
- Ki, Cheng-Prusoff method (in words) (CYP2E1 [2]): low nM ranges
Molecule: COc1cc(Br)c(O)c(Br)c1 [DBMP]

Molecule: Oc1c(Br)cccc1Br [DBP]
- Ki (CYP2C9 [4]; [11]): 2610 nM
- Localized Ki, Chance equation (CYP2C9 [4]; [I] 100 µM): -
- Localized Ki, Cheng-Prusoff equation (CYP2C9 [4]; [I] 100 µM): -
- Ki at 10 nM inhibitor (in words) (CYP2C9 [4]; CYP2C9 baculosome system, 10 nM): nanomolar
- Ki at 1 µM inhibitor (in words) (CYP2C9 [4]; CYP2C9 baculosome system, 1 µM): micromolar
- Inhibition at 100 µM (CYP2C9 [4]; CYP2C9 baculosome system, 100 µM): failed to give any inhibition
- Inhibition at 100 µM ([1]; mixed microsomes, 100 µM): failed to give any inhibition
- Ki, Cheng-Prusoff method (in words) (CYP2E1 [2]): low nM ranges

- Global Ki, linear regression (CYP2C9 [4]; [13]): -
- Global Ki, non-linear regression (CYP2C9 [4]; [14]): -
- Ki (CYP2C9 [4]; [8]): 5.5 nM
- Ki (CYP2C9 [4]; [9]): 0.7 nM
- Localized Ki, Chance equation (CYP2C9 [4]; [I] 1 µM): -
- Localized Ki, Cheng-Prusoff equation (CYP2C9 [4]; [I] 1 µM): -
- Ki (CYP2C9 [4]; [12]): 42600 nM
Molecule: NC(Cc1cc(I)c(O)c(I)c1)C(=O)O (centres unmarked) [DIT]

- Ki ([1]; read-out: Ki at 100 µM inhibitor, microsome setups, 100 µM inhibitor): 3700 nM
Molecule: CCc1oc2ccccc2c1C(=O)c1cc(Br)c(OC)c(Br)c1 [MeOBzBr]

- Global Ki, linear regression (CYP2C9 [4]; [13]): -
- Global Ki, non-linear regression (CYP2C9 [4]; [14]): -
Molecule: CCc1oc2ccccc2c1C(=O)c1cc(I)c(OC)c(I)c1 [MeOBzIr]

- Global Ki, linear regression (CYP2C9 [4]; [13]): -
- Global Ki, non-linear regression (CYP2C9 [4]; [14]): -
- Ki ([1]; Microsomes+Diclof, 0.5 µM CYP, 200 µM diclofenac, 400 µM NADPH, read-out: Global Ki, linear regression): 242 nM
Molecule: CCc1oc2ccccc2c1C(=O)c1ccc(OC)cc1 [MeOBzr]

- Relative percentage of hydroxylated product formed vs positive control (CYP2C9 [4]; CYP2C9 baculosomes 20 nM, 80 µM Diclof, inhibitor equivalent amount, 250 µM NADPH, 30 minutes): 90.1%
- Relative percentage of hydroxylated product formed vs positive control (CYP3A4; 80 µM Diclof): 17%
- Relative percentage of hydroxylated product formed vs positive control (CYP3A4; 80 µM pNP): ∼15%
- Relative percentage of hydroxylated product formed vs positive control (CYP2D6; 80 µM Diclof): 0.3%
- Relative percentage of hydroxylated product formed vs positive control (CYP2D6; 80 µM pNP): ∼15%
- Relative percentage of hydroxylated product formed vs positive control (CYP2E1 [2]; CYP2E1 baculosomes 20 nM, 80 µM pNP, inhibitor equivalent amount, 30 minutes): 15%
Molecule: Benzothiadiazole

Molecule: vitamin E [Vit. E]
- Ki (in words) (CYP2C9 [4]; baculosome reaction setup): ∼nM
